Measurements taken from patent publication US9980943B2, “Methods of treating muscular dystrophy” (BOARD OF REGENTS OF THE NEVADA SYSTEM OF HIGHER EDUCATION, …, priority 2013, dated 2018).

Assays:
Assay type in all cases: cell-based, mouse
[1] = test system: α7 integrin (LacZ reporter in α7+/LacZ myotubes); test: Myotube α7 integrin FDG assay (Burkin assay in myotubes, 96-well); conditions: myotubes
[2] = test system: α7 integrin (LacZ reporter in α7βgal+/− myoblasts); test: Myoblast α7+/LacZ integrin FDG assay (Burkin assay in myoblasts, 96-well); conditions: α7+/LacZ myoblasts, 96-well
[3] = test system: β-galactosidase in CMV-LacZ C2C12 myotubes; test: CMV-LacZ secondary screen in C2C12 myotubes (β-Gal stabilizing assay); conditions: for CMV-LACZ in Myotubes (β-galactosidase activity relative to DMSO): CMV-LacZ C2C12 myotubes, 96-well format; for CMV-LACZ in Myotubes, signal relative to DMSO: C2C12 CMV-LacZ myotubes, fold relative to DMSO
In short: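 β-Gal level was the read-out, measured in a clonal C2C12 line expressing LacZ from a CMV promoter. Dose-response curves used six concentrations, 0.5 μM up to 40 μM, with duplicate points.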

Structure (SMILES)	Burkin Assay in Myotubes (signal relative to DMSO) ([1]; 0.5 uM)	Burkin Assay in Myotubes (signal relative to DMSO) ([1]; 1 uM)	Burkin Assay in Myotubes (signal relative to DMSO) ([1]; 5 uM)	Burkin Assay in Myotubes (signal relative to DMSO) ([1]; 10 uM)	Burkin Assay in Myotubes (signal relative to DMSO) ([1]; 20 uM)	Burkin Assay in Myotubes (signal relative to DMSO) ([1]; 40 uM)	Burkin Assay in Myoblasts, value relative to DMSO ([2]; 0.5 uM)	Burkin Assay in Myoblasts, value relative to DMSO ([2]; 1 uM)	Burkin Assay in Myoblasts, value relative to DMSO ([2]; 5 uM)	Burkin Assay in Myoblasts, value relative to DMSO ([2]; 10 uM)	Burkin Assay in Myoblasts, value relative to DMSO ([2]; 20 uM)	Burkin Assay in Myoblasts, value relative to DMSO ([2]; 40 uM)	CMV-LACZ in Myotubes (β-galactosidase activity relative to DMSO) ([3]; 5 uM)	CMV-LACZ in Myotubes (β-galactosidase activity relative to DMSO) ([3]; 10 uM)	CMV-LACZ in Myotubes (β-galactosidase activity relative to DMSO) ([3]; 20 uM)	CMV-LACZ in Myotubes (β-galactosidase activity relative to DMSO) ([3]; 40 uM)	CMV-LACZ in Myotubes, signal relative to DMSO ([3]; 5 uM)	CMV-LACZ in Myotubes, signal relative to DMSO ([3]; 10 uM)	CMV-LACZ in Myotubes, signal relative to DMSO ([3]; 20 uM)	CMV-LACZ in Myotubes, signal relative to DMSO ([3]; 40 uM)	also measured
CSc1ncccc1C(=O)OCC(=O)c1cc(C)n(C)c1C [MLS002245351-01]	1.047	0.9463	1.107	1.042	1.061	1.031	1.082	1.037	1.034	0.9704	0.9001	0.8657	0.8306	1.001	1.009	0.9307	–	–	–	–	–
COc1ccc(C(=O)O/N=C(\N)c2cccc(C)c2)cc1OC [MLS001165323-01]	0.9468	0.9627	1.166	1.153	1.054	1.088	0.9704	0.9491	0.8821	0.924	0.8743	0.4779	1.072	0.9	1.315	1.488	–	–	–	–	–
CCNC(=O)CSc1nc(-c2ccc(F)cc2)cs1 [MLS000772194-01]	0.9782	0.9192	0.9654	1.072	0.9904	0.7651	1.096	1.059	1.055	1.082	1.098	1.149	–	–	–	–	1.068	0.9234	1.056	0.9968	–
CC(OC(=O)c1cc(-c2cccnc2)nc2ccccc12)C(=O)Nc1ccc2ccccc2c1 (stereo not shown) [MLS000389484-01]	–	–	–	–	–	–	–	–	–	–	–	–	–	–	–	–	0.8524	0.8387	1.116	2.781	Burkin Assay in Myotubes, α7 integrin LacZ reporter signal relative to DMSO ([1]; 0.5 uM): 0.9292; Burkin Assay in Myotubes, α7 integrin LacZ reporter signal relative to DMSO ([1]; 1 uM): 0.7793; Burkin Assay in Myotubes, α7 integrin LacZ reporter signal relative to DMSO ([1]; 5 uM): 0.8638; Burkin Assay in Myotubes, α7 integrin LacZ reporter signal relative to DMSO ([1]; 10 uM): 0.6433; Burkin Assay in Myotubes, α7 integrin LacZ reporter signal relative to DMSO ([1]; 20 uM): 0.867; Burkin Assay in Myotubes, α7 integrin LacZ reporter signal relative to DMSO ([1]; 40 uM): 0.6946; Burkin Assay in Myoblasts, signal relative to DMSO ([2]; 0.5 uM): 0.7848; Burkin Assay in Myoblasts, signal relative to DMSO ([2]; 1 uM): 0.7672; Burkin Assay in Myoblasts, signal relative to DMSO ([2]; 5 uM): 0.8524; Burkin Assay in Myoblasts, signal relative to DMSO ([2]; 10 uM): 0.8706; Burkin Assay in Myoblasts, signal relative to DMSO ([2]; 20 uM): 0.7331; Burkin Assay in Myoblasts, signal relative to DMSO ([2]; 40 uM): 0.6132
